Experimental data as given in patent publication US9260429B2, “Pyrido[3,4-B]indoles and methods of use” (Medivation Technologies, Inc., priority 2008, dated 2016).
Values belong to the molecule of their own block, whether it stands above or below them.

Key:
[1] = target: T1, human recombinant adrenergic α2B receptor (Homo sapiens, UniProt P18089); assay: Adrenergic α2B radioligand binding ([3H]Rauwolscine); conditions: 1 h; read-out: Percent Inhibition of ligand binding Adrenergic (1 μM ligand conc.) α2B
T1 construct: expressed in transfected cells; host or cells: CHO-K1 cells
T1 sequence (P18089 1-450): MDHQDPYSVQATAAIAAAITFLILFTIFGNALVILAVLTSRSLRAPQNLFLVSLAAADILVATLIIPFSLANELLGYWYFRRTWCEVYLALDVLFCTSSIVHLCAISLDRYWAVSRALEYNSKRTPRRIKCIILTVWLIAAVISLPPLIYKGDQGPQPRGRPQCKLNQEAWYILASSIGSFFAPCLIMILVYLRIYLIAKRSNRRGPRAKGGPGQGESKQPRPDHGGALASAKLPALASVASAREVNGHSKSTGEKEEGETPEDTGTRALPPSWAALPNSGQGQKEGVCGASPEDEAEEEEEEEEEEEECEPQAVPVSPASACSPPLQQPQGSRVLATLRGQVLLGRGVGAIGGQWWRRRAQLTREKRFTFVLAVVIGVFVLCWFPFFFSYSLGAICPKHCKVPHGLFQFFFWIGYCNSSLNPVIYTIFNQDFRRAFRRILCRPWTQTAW
Procedure: To evaluate in radioligand binding assays the activity of compounds of the invention, human recombinant adrenergic α2B receptor expressed in Chinese hamster ovary (CHO-K1) cells (Uhlen S et al. Eur J. Pharmacol. 343(1):93, 1998) in a modified Tris-HCl buffer (50 mM Tris-HCl, pH 7.4, 12.5 mM MgCl2, 1 mM EDTA, 0.2% BSA) was used. Compounds of the invention were incubated with 2.5 nM [^3H]Rauwolscine for 60 minutes at 25° C. Non-specific binding was estimated in the presence of 10 μM Prozosin. Receptor proteins were filtered and washed, the filters were then counted to determine [^3H]Rauwolscine specifically bound. Compounds were screened at 1 μM or lower, using 1% DMSO as vehicle. Biochemical assay results are presented as the percent inhibition of specific binding in Table 4.

[2] = target: T2, human recombinant adrenergic α2A receptor (Homo sapiens, UniProt P08913); assay: Adrenergic α2A radioligand binding ([3H]MK-912); conditions: 1 h; read-out: Percent Inhibition of ligand binding Adrenergic (1 μM ligand conc.) α2A
T2 construct: expressed in transfected cells; host or cells: insect Sf9 cells
T2 sequence (P08913 1-465): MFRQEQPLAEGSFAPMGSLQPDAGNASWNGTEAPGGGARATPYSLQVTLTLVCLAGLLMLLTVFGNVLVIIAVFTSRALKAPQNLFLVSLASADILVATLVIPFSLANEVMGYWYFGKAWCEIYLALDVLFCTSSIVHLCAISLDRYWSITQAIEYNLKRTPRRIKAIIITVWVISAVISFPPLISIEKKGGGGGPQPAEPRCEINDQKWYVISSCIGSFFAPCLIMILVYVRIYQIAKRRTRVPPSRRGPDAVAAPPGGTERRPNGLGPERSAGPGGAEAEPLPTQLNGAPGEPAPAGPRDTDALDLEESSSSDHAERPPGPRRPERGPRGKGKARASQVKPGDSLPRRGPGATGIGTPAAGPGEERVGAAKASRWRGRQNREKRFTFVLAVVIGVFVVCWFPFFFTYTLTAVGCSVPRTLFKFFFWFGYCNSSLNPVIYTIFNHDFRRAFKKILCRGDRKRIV
Procedure: To evaluate in radioligand binding assays the activity of compounds of the invention, human recombinant adrenergic α2A receptor expressed in insect Sf9 cells (Uhlen S et al. J Pharmacol Exp Ther. 271:1558, 1994) in a modified Tris-HCl buffer (50 mM Tris-HCl, pH 7.4, 12.5 mM MgCl2, 2 mM EDTA) was used. Compounds of invention were incubated with 1 nM [^3H]MK-912 for 60 minutes at 25° C. MK912 is (2S-trans)-1,3,4,5′,6,6′,7,12b-octahydro-1′,3′-dimethyl-spiro[2H-benzofuro[2,3-a]quinolizine-2,4′(1′H)-pyrimidin]-2′(3′H)-one hydrochloride Non-specific binding was estimated in the presence of 10 μM WB-4101 (2-(2,6-Dimethoxyphenoxyethyl)aminomethyl-1,4-benzodioxane hydrochloride). Receptor proteins were filtered and washed, the filters were then counted to determine [^3H]MK-912 specifically bound. Compounds were screened at 1 μM or lower, using 1% DMSO as vehicle. Biochemical assay results are presented as the percent inhibition of specific binding in Table 4.

[3] = target: T3, human recombinant histamine H2 receptor (Homo sapiens, UniProt P25021); assay: Histamine H2 radioligand binding ([125I]Aminopotentidine); conditions: 1 μM; inhibition of specific [125I]Aminopotentidine binding; read-out: Binding data (Percentage Inhibition) Histamine Binding (1 μM) H2
T3 construct: expressed in transfected cells; host or cells: CHO-K1 cells
Procedure, shortened: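 Membranes of CHO-K1 cells expressing human H2 receptor incubated with 0.1 nM [125I]aminopotentidine, 120 min, 25 °C, 50 mM phosphate pH 7.4; nonspecific binding defined with 3 μM tiotidine.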

[4] = target: T4, human recombinant serotonin (5-Hydroxytryptamine) 5-HT2A receptor (Homo sapiens, UniProt P28223); assay: Serotonin 5-HT2A radioligand binding ([3H]Ketanserin); conditions: 1 h; read-out: Percent Inhibition of ligand binding Serotonin (1 μM ligand concentration) 5-HT2A
T4 construct: expressed in transfected cells; host or cells: CHO-K1 cells
Procedure, shortened: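 Membranes from CHO-K1 cells expressing the receptor, in 50 mM Tris-HCl pH 7.4, incubated 60 min at 25° C with 0.5 nM [3H]Ketanserin; 1 μM Mianserin defines non-specific binding. Filtration and counting; values are % inhibition of specific binding at 1 μM or lower, 1% DMSO.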

T4 sequence (P28223 whole entry): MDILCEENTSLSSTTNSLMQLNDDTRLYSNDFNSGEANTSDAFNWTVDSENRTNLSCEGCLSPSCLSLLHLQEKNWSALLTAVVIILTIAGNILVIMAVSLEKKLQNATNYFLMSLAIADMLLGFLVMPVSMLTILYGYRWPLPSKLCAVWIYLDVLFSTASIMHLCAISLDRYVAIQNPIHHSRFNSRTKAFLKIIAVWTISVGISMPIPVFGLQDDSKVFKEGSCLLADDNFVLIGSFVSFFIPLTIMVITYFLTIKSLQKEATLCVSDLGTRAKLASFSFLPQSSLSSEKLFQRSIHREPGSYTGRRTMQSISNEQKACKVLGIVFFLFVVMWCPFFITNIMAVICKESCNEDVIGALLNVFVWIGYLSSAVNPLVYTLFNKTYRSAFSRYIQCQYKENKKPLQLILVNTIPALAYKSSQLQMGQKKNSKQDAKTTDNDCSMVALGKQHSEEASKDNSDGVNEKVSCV
T3 sequence (P25021 whole entry): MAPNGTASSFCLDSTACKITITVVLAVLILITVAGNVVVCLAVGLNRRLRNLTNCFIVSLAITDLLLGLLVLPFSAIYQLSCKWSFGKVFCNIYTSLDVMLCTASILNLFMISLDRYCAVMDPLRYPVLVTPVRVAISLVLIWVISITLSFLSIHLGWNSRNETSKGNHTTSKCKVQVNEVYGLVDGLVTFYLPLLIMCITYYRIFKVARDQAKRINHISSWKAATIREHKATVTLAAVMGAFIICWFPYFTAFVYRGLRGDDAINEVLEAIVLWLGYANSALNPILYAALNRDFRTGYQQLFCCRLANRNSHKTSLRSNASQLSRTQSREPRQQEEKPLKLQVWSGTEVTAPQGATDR

inhibition at 1 µM [1]: 99%
inhibition at 1 µM [2]: 74%
inhibition at 1 µM [3]: 5%
Compound: Cc1ccc2c(c1)c1c(n2CCc2ccc(C)nc2)CN(C)CC1 [Compound 1, 2,3,4,9-tetrahydro-2,6-dimethyl-9-(2-(6-methylpyridin-3-yl)ethyl)-1H-pyrido[3,4-b]indole]

inhibition at 1 µM [1]: 81%
inhibition at 1 µM [2]: 81%
inhibition at 1 µM [3]: 71%
Compound: Cc1ccc2c(c1)c1c(n2CCC2CCCCC2)CN(C)CC1 [Compound 2, 9-(2-cyclohexylethyl)-2,3,4,9-tetrahydro-2,6-dimethyl-1H-pyrido[3,4-b]indole]

inhibition at 1 µM [1]: 108%
inhibition at 1 µM [2]: 99%
inhibition at 1 µM [3]: 51%
Compound: CN1CCc2c(n(CCc3ccc(F)cc3)c3ccc(Cl)cc23)C1 [Compound 3, 9-(4-fluorophenethyl)-6-chloro-2,3,4,9-tetrahydro-2-methyl-1H-pyrido[3,4-b]indole]

Compound: Cc1ccc2c(c1)c1c(n2CCc2ccc(C(F)(F)F)nc2)CN(C)CC1 [Compound 5, 9-(2-(6-(trifluoromethyl)pyridin-3-yl)ethyl)-2,3,4,9-tetrahydro-2,6-dimethyl-1H-pyrido[3,4-b]indole]
inhibition at 1 µM [1]: 83%
inhibition at 1 µM [2]: 74%
inhibition at 1 µM [4]: 51%
inhibition at 1 µM [3]: 36%

Compound: CC(C)CCN(C)C(=O)Cn1c2c(c3cc(Cl)ccc31)CCN(C)C2 [Compound 14, 2-(6-chloro-1,2,3,4-tetrahydro-2-methylpyrido[3,4-b]indol-9-yl)-N-isopentyl-N-methylacetamide]
inhibition at 1 µM [1]: -16%
inhibition at 1 µM [2]: 19%
inhibition at 1 µM [4]: 27%
inhibition at 1 µM [3]: 12%

Compound: CN1CCc2c(n(CC(=O)Nc3ccc(F)cc3)c3ccc(Cl)cc23)C1 [Compound 15, 2-(6-chloro-1,2,3,4-tetrahydro-2-methylpyrido[3,4-b]indol-9-yl)-N-(4-fluorophenyl)acetamide]
inhibition at 1 µM [1]: 8%
inhibition at 1 µM [2]: 15%
inhibition at 1 µM [4]: 6%
inhibition at 1 µM [3]: -3%

Compound: CN1CCc2c(n(CC(=O)N(C)C)c3ccc(Cl)cc23)C1 [Compound 16, 2-(6-chloro-1,2,3,4-tetrahydro-2-methylpyrido[3,4-b]indol-9-yl)-N,N-dimethylacetamide]
inhibition at 1 µM [1]: -7%
inhibition at 1 µM [2]: -4%
inhibition at 1 µM [4]: 10%
inhibition at 1 µM [3]: 1%

Compound: CN1CCc2c(n(CC(=O)NC3CCCCC3)c3ccc(Cl)cc23)C1 [Compound 17, 2-(6-chloro-1,2,3,4-tetrahydro-2-methylpyvrido[3,4-b]indol-9-yl)-N-cyclohexylacetamide]
inhibition at 1 µM [1]: 14%
inhibition at 1 µM [2]: 17%
inhibition at 1 µM [4]: 17%
inhibition at 1 µM [3]: -6%

Compound: CN1CCc2c(n(CC(=O)N(C)C3CCCCC3)c3ccc(Cl)cc23)C1 [Compound 18, 2-(6-chloro-1,2,3,4-tetrahydro-2-methylpyrido[3,4-b]indol-9-yl)-N-cyclohexyl-N-methylacetamide]
inhibition at 1 µM [1]: 19%
inhibition at 1 µM [2]: 4%
inhibition at 1 µM [4]: -1%
inhibition at 1 µM [3]: 7%

Compound: COC(=O)Cn1c2c(c3cc(C)ccc31)CCN(C)C2 [Compound 21, methyl 2-(1,2,3,4-tetrahydro-2,6-dimethylpyrido[3,4-b]indol-9-yl)acetate]
inhibition at 1 µM [1]: 11%
inhibition at 1 µM [2]: 0%
inhibition at 1 µM [4]: 4%
inhibition at 1 µM [3]: 2%

Compound: CN1CCc2c(n(CCCc3ccccc3)c3ccc(Cl)cc23)C1 [Compound 29, 6-chloro-2,3,4,9-tetrahydro-2-methyl-9-(3-phenylpropyl)-1H-pyrido[3,4-b]indole]
inhibition at 1 µM [1]: 79%
inhibition at 1 µM [2]: 96%
inhibition at 1 µM [4]: 83%
inhibition at 1 µM [3]: 60%

Compound: CN1CCc2c(n(CCN3CCCCC3)c3ccc(Cl)cc23)C1 [Compound 34, 6-chloro-2,3,4,9-tetrahydro-2-methyl-9-(2-(piperidin-1-yl)ethyl)-1H-pyrido[3,4-b]indole]
inhibition at 1 µM [1]: 38%
inhibition at 1 µM [2]: 66%
inhibition at 1 µM [4]: 31%
inhibition at 1 µM [3]: 20%

Compound: CN1CCc2c(n(CCC3CCCC3)c3ccc(Cl)cc23)C1 [Compound 35, 6-chloro-9-(2-cyclopentylethyl)-2,3,4,9-tetrahydro-2-methyl-1H-pyrido[3,4-b]indole]
inhibition at 1 µM [1]: 65%
inhibition at 1 µM [2]: 88%
inhibition at 1 µM [4]: 69%
inhibition at 1 µM [3]: 67%

inhibition at 1 µM [1]: 15%
inhibition at 1 µM [2]: 15%
inhibition at 1 µM [3]: 3%
Compound: CC1CCN(C(=O)Cn2c3c(c4cc(Cl)ccc42)CCN(C)C3)CC1 [Compound 38, 2-(6-chloro-1,2,3,4-tetrahydro-2-methylpyrido[3,4-b]indol-9-yl)-1-(4-methylpiperidin-1-vyl)ethanone]

Compound: CN1CCc2c(n(CC(=O)N3CCCC3)c3ccc(Cl)cc23)C1 [Compound 40, 2-(6-chloro-1,2,3,4-tetrahydro-2-methylpyrido[3,4-b]indol-9-yl)-1-(pyrrolidin-1-yl)ethanone]
inhibition at 1 µM [1]: 18%
inhibition at 1 µM [2]: 1%
inhibition at 1 µM [4]: 5%
inhibition at 1 µM [3]: 4%

Compound: Cc1ccc2c(c1)c1c(n2CCC(=O)N2CCCCC2)CN(C)CC1 [Compound 43, 3-(1,2,3,4-tetrahydro-2,6-dimethylpyrido[3,4-b]indol-9-yl)-1-(piperidin-1-yl)propan-1-one]
inhibition at 1 µM [1]: -14%
inhibition at 1 µM [2]: 42%
inhibition at 1 µM [4]: 69%
inhibition at 1 µM [3]: 6%

Compound: CN1CCc2c(n(CCCC(=O)N3CCCCC3)c3ccc(Cl)cc23)C1 [Compound 44, 4-(6-chloro-1,2,3,4-tetrahydro-2-methylpyrido[3,4-b]indol-9-yl)-1-(piperidin-1-yl)butan-1-one]
inhibition at 1 µM [1]: 20%
inhibition at 1 µM [2]: 77%
inhibition at 1 µM [4]: 73%
inhibition at 1 µM [3]: 9%

Compound: CN1CCc2c(n(CC(=O)O)c3ccc(Cl)cc23)C1 [Compound 52, 2-(6-chloro-1,2,3,4-tetrahydro-2-methylpyrido[3,4-b]indol-9-yl)acetic acid]
inhibition at 1 µM [1]: 9%
inhibition at 1 µM [2]: 4%
inhibition at 1 µM [4]: -11%
inhibition at 1 µM [3]: -5%

Compound: Cc1ccc2c(c1)c1c(n2CC(=O)O)CN(C)CC1 [Compound 53, 2-(1,2,3,4-tetrahydro-2,6-dimethylpyrido[3,4-b]indol-9-yl)acetic acid]
inhibition at 1 µM [1]: 6%
inhibition at 1 µM [2]: 5%
inhibition at 1 µM [4]: -6%
inhibition at 1 µM [3]: 0%

Compound: C#CCn1c2c(c3cc(Cl)ccc31)CCN(C)C2 [Compound 125, 6-chloro-2,3,4,9-tetrahydro-2-methyl-9-(prop-2-yn1)-1H-pyrido[3,4-b]indole]
inhibition at 1 µM [1]: 67%
inhibition at 1 µM [2]: 89%
inhibition at 1 µM [3]: 9%
